# PubChem BioAssay (NCI)
#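 Five compound concentrations were applied to cells in 96-well plates for 48 hours; endpoints were derived by simple linear interpolation of the resulting dose-response curve. At the TGI there is no net growth.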
# Columns and labels:
# Assay in all cases: NCI tumour cell line growth inhibition, 48 h
# OVCAR-4 ovarian = system: OVCAR-4 ovarian
# MALME-3M melanoma = system: MALME-3M melanoma
# UO-31 renal = system: UO-31 renal
# HT29 colon = system: HT29 colon
# UACC-257 melanoma = system: UACC-257 melanoma
# SF-268 CNS = system: SF-268 CNS
# A549 NSCLC = system: A549 NSCLC
# UACC-62 melanoma = system: UACC-62 melanoma
# SK-MEL-28 melanoma = system: SK-MEL-28 melanoma
# PC-3 prostate = system: PC-3 prostate
# RPMI-8226 leukemia = system: RPMI-8226 leukemia
# MDA-MB-231 breast = system: MDA-MB-231 breast
# NCI-H522 lung = system: NCI-H522 lung
# 786-0 renal = system: 786-0 renal
# T-47D breast = system: T-47D breast
# SK-OV-3 ovarian = system: SK-OV-3 ovarian
# RXF 393 renal = system: RXF 393 renal
# HCT-116 colon = system: HCT-116 colon
# SR leukemia = system: SR leukemia
# HCT-15 colon = system: HCT-15 colon
# K-562 leukemia = system: K-562 leukemia
# M14 melanoma = system: M14 melanoma
# A498 renal = system: A498 renal
# NCI/ADR-RES ovarian = system: NCI/ADR-RES ovarian
# COLO 205 colon = system: COLO 205 colon
# SW-620 colon = system: SW-620 colon
# HS 578T breast = system: HS 578T breast
# SF-539 CNS = system: SF-539 CNS
# LOX IMVI melanoma = system: LOX IMVI melanoma
# HOP-92 NSCLC = system: HOP-92 NSCLC
# IGROV1 ovarian = system: IGROV1 ovarian
# OVCAR-3 ovarian = system: OVCAR-3 ovarian
# SK-MEL-2 melanoma = system: SK-MEL-2 melanoma
# MDA-N = system: MDA-N
# CAKI-1 renal = system: CAKI-1 renal
# SN12C renal = system: SN12C renal
# NCI-H23 lung = system: NCI-H23 lung
# DU-145 prostate = system: DU-145 prostate
# MCF7 breast = system: MCF7 breast
# OVCAR-5 ovarian = system: OVCAR-5 ovarian
# BT-549 breast = system: BT-549 breast
# HOP-62 NSCLC = system: HOP-62 NSCLC
# MOLT-4 leukemia = system: MOLT-4 leukemia
# U251 CNS = system: U251 CNS
# SNB-19 CNS = system: SNB-19 CNS
# SNB-75 CNS = system: SNB-75 CNS
# NCI-H460 lung = system: NCI-H460 lung
# HCC-2998 colon = system: HCC-2998 colon
# ACHN renal = system: ACHN renal
# MDA-MB-435 = system: MDA-MB-435
# OVCAR-8 ovarian = system: OVCAR-8 ovarian
# SK-MEL-5 melanoma = system: SK-MEL-5 melanoma
# KM12 colon = system: KM12 colon
# TK-10 renal = system: TK-10 renal
# EKVX NSCLC = system: EKVX NSCLC
# NCI-H226 lung = system: NCI-H226 lung
# SF-295 CNS = system: SF-295 CNS
# HL-60(TB) leukemia = system: HL-60(TB) leukemia
# CCRF-CEM leukemia = system: CCRF-CEM leukemia
compound,measurement,setting,value
C[C@]12CC[C@H](O)C[C@@H]1CC[C@@H]1[C@@H]2CC[C@]2(C)[C@@H](c3cc(C(F)(F)F)n[nH]3)CC[C@@H]12,TGI,OVCAR-4 ovarian,20.2 µM
same,TGI,MALME-3M melanoma,> 53.3 µM
same,TGI,UO-31 renal,3.1 µM
same,TGI,HT29 colon,18.4 µM
same,TGI,UACC-257 melanoma,16.8 µM
same,TGI,SF-268 CNS,> 53.6 µM
same,TGI,A549 NSCLC,23.1 µM
same,TGI,UACC-62 melanoma,27.4 µM
same,TGI,SK-MEL-28 melanoma,26.9 µM
same,TGI,PC-3 prostate,20.7 µM
same,TGI,RPMI-8226 leukemia,22.7 µM
same,TGI,MDA-MB-231 breast,18.9 µM
same,TGI,NCI-H522 lung,> 43.8 µM
same,TGI,786-0 renal,17 µM
same,TGI,T-47D breast,23.6 µM
same,TGI,SK-OV-3 ovarian,28.4 µM
same,TGI,RXF 393 renal,16.5 µM
same,TGI,HCT-116 colon,14 µM
same,TGI,SR leukemia,15.3 µM
same,TGI,HCT-15 colon,24.3 µM
same,TGI,K-562 leukemia,15.3 µM
same,TGI,M14 melanoma,23.9 µM
same,TGI,A498 renal,21.1 µM
same,TGI,NCI/ADR-RES ovarian,23.3 µM
same,TGI,COLO 205 colon,16.2 µM
same,TGI,SW-620 colon,37.3 µM
same,TGI,HS 578T breast,> 58.9 µM
same,TGI,SF-539 CNS,22.5 µM
same,TGI,LOX IMVI melanoma,21.7 µM
same,TGI,HOP-92 NSCLC,9.07 µM
same,TGI,IGROV1 ovarian,19.8 µM
same,TGI,OVCAR-3 ovarian,24.8 µM
same,TGI,SK-MEL-2 melanoma,33.1 µM
same,TGI,MDA-N,25.4 µM
same,TGI,CAKI-1 renal,26.9 µM
same,TGI,SN12C renal,21.7 µM
same,TGI,NCI-H23 lung,24.7 µM
same,TGI,DU-145 prostate,22.9 µM
same,TGI,MCF7 breast,21.1 µM
same,TGI,OVCAR-5 ovarian,23.5 µM
same,TGI,BT-549 breast,23 µM
same,TGI,HOP-62 NSCLC,23 µM
same,TGI,MOLT-4 leukemia,19.7 µM
same,TGI,U251 CNS,24.1 µM
same,TGI,SNB-19 CNS,28.3 µM
same,TGI,SNB-75 CNS,24.5 µM
same,TGI,NCI-H460 lung,15.3 µM
same,TGI,HCC-2998 colon,34.4 µM
same,TGI,ACHN renal,20 µM
same,TGI,MDA-MB-435,22.9 µM
same,TGI,OVCAR-8 ovarian,21 µM
same,TGI,SK-MEL-5 melanoma,19.6 µM
same,TGI,KM12 colon,25.6 µM
same,TGI,TK-10 renal,16 µM
same,TGI,EKVX NSCLC,28.2 µM
same,TGI,NCI-H226 lung,36.7 µM
same,TGI,SF-295 CNS,16.9 µM
same,TGI,HL-60(TB) leukemia,2.89 µM
same,TGI,CCRF-CEM leukemia,5.43 µM
COc1cc(/C=C2\CCC(C)C3=C(c4cc(OC)c(OC)c(OC)c4)C(C#N)=C(N)OC32)cc(OC)c1OC (stereo not drawn),TGI,OVCAR-4 ovarian,> 59.6 µM
same,TGI,MALME-3M melanoma,9.03 µM
same,TGI,UO-31 renal,> 100 µM
same,TGI,HT29 colon,5.02 µM
same,TGI,UACC-257 melanoma,> 65.4 µM
same,TGI,SF-268 CNS,> 100 µM
same,TGI,A549 NSCLC,> 100 µM
same,TGI,UACC-62 melanoma,23.2 µM
same,TGI,SK-MEL-28 melanoma,13.9 µM
same,TGI,PC-3 prostate,24.8 µM
same,TGI,RPMI-8226 leukemia,6.08 µM
same,TGI,MDA-MB-231 breast,10.9 µM
same,TGI,NCI-H522 lung,7.75 µM
same,TGI,786-0 renal,8.83 µM
same,TGI,T-47D breast,12.9 µM
same,TGI,SK-OV-3 ovarian,> 57.2 µM
same,TGI,RXF 393 renal,4.36 µM
same,TGI,HCT-116 colon,11.3 µM
same,TGI,SR leukemia,> 37.8 µM
same,TGI,HCT-15 colon,> 68.2 µM
same,TGI,K-562 leukemia,> 100 µM
same,TGI,M14 melanoma,6.92 µM
same,TGI,A498 renal,> 53.4 µM
same,TGI,NCI/ADR-RES ovarian,99.2 µM
same,TGI,COLO 205 colon,5.48 µM
same,TGI,SW-620 colon,> 100 µM
same,TGI,HS 578T breast,14.6 µM
same,TGI,SF-539 CNS,4.98 µM
same,TGI,LOX IMVI melanoma,8.99 µM
same,TGI,HOP-92 NSCLC,> 31.3 µM
same,TGI,IGROV1 ovarian,> 52.3 µM
same,TGI,OVCAR-3 ovarian,> 60.1 µM
same,TGI,SK-MEL-2 melanoma,4.46 µM
same,TGI,MDA-N,21.9 µM
same,TGI,CAKI-1 renal,> 65.2 µM
same,TGI,SN12C renal,> 60.6 µM
same,TGI,NCI-H23 lung,> 100 µM
same,TGI,DU-145 prostate,> 100 µM
same,TGI,MCF7 breast,7.4 µM
same,TGI,OVCAR-5 ovarian,> 64.6 µM
same,TGI,BT-549 breast,> 100 µM
same,TGI,HOP-62 NSCLC,> 100 µM
same,TGI,MOLT-4 leukemia,> 49 µM
same,TGI,U251 CNS,25.7 µM
same,TGI,SNB-19 CNS,> 100 µM
same,TGI,SNB-75 CNS,9.24 µM
same,TGI,NCI-H460 lung,> 100 µM
same,TGI,HCC-2998 colon,32.5 µM
same,TGI,ACHN renal,> 65.6 µM
same,TGI,MDA-MB-435,21.6 µM
same,TGI,OVCAR-8 ovarian,> 73 µM
same,TGI,SK-MEL-5 melanoma,7.24 µM
same,TGI,KM12 colon,36.8 µM
same,TGI,TK-10 renal,> 100 µM
same,TGI,EKVX NSCLC,47.6 µM
same,TGI,NCI-H226 lung,6.96 µM
same,TGI,SF-295 CNS,> 40.6 µM
same,TGI,HL-60(TB) leukemia,> 25 µM
same,TGI,CCRF-CEM leukemia,26.2 µM
